The results in this text go back to US20250195536A1, “BICYCLOOCTANE KRAS INHIBITORS” (Incyte Corporation, priority 2023, published 2025).

Series [1] is described as follows: Caco2 assay (permeability, Papp A-B). The format is in vitro ADME. Conditions: human, Caco-2, absorptive direction (A-B), 50 μM test compound, 4% BSA in receiver. In outline:
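Absorptive (A-B) Papp: 50 μM test compound in HBSS added to apical side of 22-25-day Caco-2 monolayers (TEER 300 Ω·cm^2), receiver buffer containing 4% BSA. After 120 min at 37 °C, 5% CO2, both sides analysed by LCMS; Papp calculated from flux rate normalized to area and donor amount.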
(Passage across Caco-2 layers is used to estimate intestinal permeability.)

The target of series [2] is KRAS G12V (Homo sapiens, UniProt P01116, G12V). Briefly: GDP-GTP exchange assay (KRAS G12V).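 Also: one dagger IC50 up to 100 nM and two daggers above 100 nM up to 1 μM.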 It counts as biochemical. Conditions: bodipy-GDP/GppNHp exchange with SOS1; 3 h incubation after GppNHp-SOS1. Put shortly: (§1)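 IC50 came from a four-parameter fit of fluorescence loss (485/520 nm) as SOS1 (150 nM) swapped bodipy-GDP for GppNHp (500 μM) on 2.5 nM KRAS, final concentrations. Compounds were pre-incubated 4 h at r.t. (pH 7.5 Hepes, 10 mM MgCl2); exchange ran 2 h (G12D) or 3 h (G12V).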

Series [3] addresses KRAS G12D (Homo sapiens, UniProt P01116, G12D). Briefly: GDP-GTP exchange assay (KRAS G12D).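 Also: one dagger IC50 up to 100 nM and two daggers above 100 nM up to 1 μM.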 The format is biochemical. Conditions: bodipy-GDP/GppNHp exchange with SOS1; 4 h pre-incubation, 2 h reaction. Put shortly: as §1

Broadly, the Papp A→B is the apparent permeability from the apical to the basolateral side of a cell layer.

Chain of KRAS G12V (P01116 1-188 isoform P01116-2 G12V): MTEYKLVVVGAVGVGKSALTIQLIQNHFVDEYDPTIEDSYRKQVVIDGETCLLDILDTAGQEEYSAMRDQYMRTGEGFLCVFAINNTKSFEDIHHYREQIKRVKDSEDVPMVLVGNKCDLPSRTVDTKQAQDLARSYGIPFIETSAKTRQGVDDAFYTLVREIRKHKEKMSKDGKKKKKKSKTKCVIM
Chain of KRAS G12D (P01116 1-188 isoform P01116-2 G12D): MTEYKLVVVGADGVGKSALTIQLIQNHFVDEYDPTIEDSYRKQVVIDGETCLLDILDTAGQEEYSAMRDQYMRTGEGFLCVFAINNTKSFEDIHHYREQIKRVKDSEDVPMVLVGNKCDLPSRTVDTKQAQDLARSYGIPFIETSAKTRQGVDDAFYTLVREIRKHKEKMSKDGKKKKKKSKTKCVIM

For `Cc1nc2c(F)c(-c3cccc(Cl)c3Cl)c(CCC#N)cc2c2c1cc([C@H]1[C@H]3C[C@H](CN(c4nccc(C(F)F)c4F)C3)N1C(=O)C1CC1)n2[C@H]1[C@H]2CN[C@@H]1C2` (atropisomer, axis not shown; (Ra)) [Example 54, 3-((Ra)-1-((1R,4R,5S)-2-azabicyclo[2.1.1]hexan-5-yl)-2-((1S,5R,7R)-6-(cyclopropanecarbonyl)-3-(4-(difluoromethyl)-3-fluoropyridin-2-yl)-3,6-diazabicyclo[3.2.1]octan-7-yl)-7-(2,3-dichlorophenyl)-6-fluoro-4-methyl-1H-pyrrolo[3,2-c]quinolin-8-yl)propanenitrile], the apparent permeability from apical to basolateral (Papp A→B) at 120 min, 50 μM in series [1] was no more than 0.5 ×10⁻⁶ cm/s. Moreover, in series [2], the “G12V_exchange (KRAS_G12V exchange assay IC50)” value (“G12V_exchange” below) is “†”. In series [3], the “G12D_exchange (KRAS_G12D exchange assay IC50)” value (shortened to “G12D_exchange”) is reported as “†”.

`COc1ccnc(N2C[C@@H]3C[C@H](C2)N(C(=O)C2CC2)[C@H]3c2cc3c(C)nc4c(F)c(-c5cccc(Cl)c5Cl)c(CCC#N)cc4c3n2[C@H]2[C@H]3CN[C@@H]2C3)c1F` (atropisomer, axis not shown; (Ra)) [Example 55, 3-((Ra)-1-((1R,4R,5S)-2-azabicyclo[2.1.1]hexan-5-yl)-2-((1S,5R,7R)-6-(cyclopropanecarbonyl)-3-(3-fluoro-4-methoxypyridin-2-yl)-3,6-diazabicyclo[3.2.1]octan-7-yl)-7-(2,3-dichlorophenyl)-6-fluoro-4-methyl-1H-pyrrolo[3,2-c]quinolin-8-yl)propanenitrile] showed a Papp A→B at 120 min, 50 μM in series [1] of 0.5 to 1 ×10⁻⁶ cm/s. Besides, the “G12V_exchange” value in series [2] is given as “†”. In addition, the “G12D_exchange” value in series [3] was “††”.

In series [1], `Cc1nc2c(F)c(-c3cccc(Cl)c3Cl)c(CCC#N)cc2c2c1cc([C@H]1[C@H]3C[C@H](CN(c4ccn(C(F)F)c(=O)c4)C3)N1C(=O)C1CC1)n2[C@H]1[C@H]2CN[C@@H]1C2` (atropisomer, axis not shown; (Ra)) [Example 56, 3-((Ra)-1-((1R,4R,5S)-2-azabicyclo[2.1.1]hexan-5-yl)-2-((1S,5R,7R)-6-(cyclopropanecarbonyl)-3-(1-(difluoromethyl)-2-oxo-1,2-dihydropyridin-4-yl)-3,6-diazabicyclo[3.2.1]octan-7-yl)-7-(2,3-dichlorophenyl)-6-fluoro-4-methyl-1H-pyrrolo[3,2-c]quinolin-8-yl)propanenitrile] yielded a Papp A→B at 120 min, 50 μM of no more than 0.5 ×10⁻⁶ cm/s. Also, the “G12V_exchange” value in series [2] is “†”. Moreover, in series [3], the “G12D_exchange” value is “†”.

In series [1], `Cc1nc2c(F)c(-c3cccc(Cl)c3Cl)c(CCC#N)cc2c2c1cc([C@H]1[C@H]3C[C@H](CN(c4ccn(CC(C)C)c(=O)c4)C3)N1C(=O)C1CC1)n2[C@H]1[C@H]2CN[C@@H]1C2` (atropisomer, axis not shown; (Ra)) [Example 58, 3-((Ra)-1-((1R,4R,5S)-2-azabicyclo[2.1.1]hexan-5-yl)-2-((1S,5R,7R)-6-(cyclopropanecarbonyl)-3-(1-isobutyl-2-oxo-1,2-dihydropyridin-4-yl)-3,6-diazabicyclo[3.2.1]octan-7-yl)-7-(2,3-dichlorophenyl)-6-fluoro-4-methyl-1H-pyrrolo[3,2-c]quinolin-8-yl)propanenitrile] came in with a Papp A→B at 120 min, 50 μM of no more than 0.5 ×10⁻⁶ cm/s. Moreover, the “G12V_exchange” value in series [2] was “†”. For the same molecule, the “G12D_exchange” value in series [3] was “†”.

Regarding `COc1cc(N2C[C@@H]3C[C@H](C2)N(C(=O)C2CC2)[C@H]3c2cc3c(C)nc4c(F)c(-c5cccc(Cl)c5Cl)c(CCC#N)cc4c3n2[C@H]2[C@H]3CN[C@@H]2C3)ccn1` (atropisomer, axis not shown; (Ra)) [Example 59, 3-((Ra)-1-((1R,4R,5S)-2-azabicyclo[2.1.1]hexan-5-yl)-2-((1S,5R,7R)-6-(cyclopropanecarbonyl)-3-(2-methoxypyridin-4-yl)-3,6-diazabicyclo[3.2.1]octan-7-yl)-7-(2,3-dichlorophenyl)-6-fluoro-4-methyl-1H-pyrrolo[3,2-c]quinolin-8-yl)propanenitrile], the Papp A→B at 120 min, 50 μM in series [1] was no more than 0.5 ×10⁻⁶ cm/s. Besides, in series [2], the “G12V_exchange” value is reported as “†”. In series [3], the “G12D_exchange” value is recorded as “†”.

With `Cc1nc2c(F)c(-c3cccc(Cl)c3Cl)c(CCC#N)cc2c2c1cc([C@H]1[C@H]3C[C@H](CN(c4ccnc(C(F)F)c4)C3)N1C(=O)C1CC1)n2[C@H]1[C@H]2CN[C@@H]1C2` (atropisomer, axis not shown; (Ra)) [Example 60, 3-((Ra)-1-((1R,4R,5S)-2-azabicyclo[2.1.1]hexan-5-yl)-2-((1S,5R,7R)-6-(cyclopropanecarbonyl)-3-(2-(difluoromethyl)pyridin-4-yl)-3,6-diazabicyclo[3.2.1]octan-7-yl)-7-(2,3-dichlorophenyl)-6-fluoro-4-methyl-1H-pyrrolo[3,2-c]quinolin-8-yl)propanenitrile], the Papp A→B at 120 min, 50 μM in series [1] is no more than 0.5 ×10⁻⁶ cm/s. Further, the “G12V_exchange” value in series [2] is given as “†”. In series [3], the “G12D_exchange” value was “†”.

Turning to `Cc1nc2c(F)c(-c3cccc(Cl)c3Cl)c(CCC#N)cc2c2c1cc([C@H]1[C@H]3C[C@H](CN(c4ccn5ccnc5c4)C3)N1C(=O)C1CC1)n2[C@H]1[C@H]2CN[C@@H]1C2` (atropisomer, axis not shown; (Ra)) [Example 61, 3-((Ra)-1-((1R,4R,5S)-2-azabicyclo[2.1.1]hexan-5-yl)-2-((1S,5R,7R)-6-(cyclopropanecarbonyl)-3-(imidazo[1,2-a]pyridin-7-yl)-3,6-diazabicyclo[3.2.1]octan-7-yl)-7-(2,3-dichlorophenyl)-6-fluoro-4-methyl-1H-pyrrolo[3,2-c]quinolin-8-yl)propanenitrile], the Papp A→B at 120 min, 50 μM in series [1] is no more than 0.5 ×10⁻⁶ cm/s. In addition, the “G12V_exchange” value in series [2] is “†”. The “G12D_exchange” value in series [3] is listed as “†”.

On to `Cc1nc2c(F)c(-c3cccc(Cl)c3Cl)c(CCC#N)cc2c2c1cc([C@H]1[C@H]3C[C@H](CN(c4ccnc(C(C)(C)O)c4)C3)N1C(=O)C1CC1)n2[C@H]1[C@H]2CN[C@@H]1C2` (atropisomer, axis not shown; (Ra)) [Example 62, 3-((Ra)-1-((1R,4R,5S)-2-azabicyclo[2.1.1]hexan-5-yl)-2-((1S,5R,7R)-6-(cyclopropanecarbonyl)-3-(2-(2-hydroxypropan-2-yl)pyridin-4-yl)-3,6-diazabicyclo[3.2.1]octan-7-yl)-7-(2,3-dichlorophenyl)-6-fluoro-4-methyl-1H-pyrrolo[3,2-c]quinolin-8-yl)propanenitrile], for which the Papp A→B at 120 min, 50 μM in series [1] is no more than 0.5 ×10⁻⁶ cm/s. For the same molecule, in series [2], the “G12V_exchange” value is reported as “†”. The “G12D_exchange” value in series [3] is “†”.

In the case of `Cc1nc2c(F)c(-c3cccc(Cl)c3Cl)c(CCC#N)cc2c2c1cc([C@H]1[C@H]3C[C@H](CN(c4cnn(C)c(=O)c4)C3)N1C(=O)C1CC1)n2[C@H]1[C@H]2CN[C@@H]1C2` (atropisomer, axis not shown; (Ra)) [Example 65, 3-((Ra)-1-((1R,4R,5S)-2-azabicyclo[2.1.1]hexan-5-yl)-2-((1S,5R,7R)-6-(cyclopropanecarbonyl)-3-(1-methyl-6-oxo-1,6-dihydropyridazin-4-yl)-3,6-diazabicyclo[3.2.1]octan-7-yl)-7-(2,3-dichlorophenyl)-6-fluoro-4-methyl-1H-pyrrolo[3,2-c]quinolin-8-yl)propanenitrile], the Papp A→B at 120 min, 50 μM in series [1] is no more than 0.5 ×10⁻⁶ cm/s. The “G12V_exchange” value in series [2] is reported as “†”. The “G12D_exchange” value in series [3] was “†”.
